Assay results: PMC7011792 (Journal of Enzyme Inhibition and Medicinal Chemistry, 2017)

Legend:
[1] = biological target: T1, huAChE (Homo sapiens, UniProt P22303); experiment: Kinetic study of huAChE inhibition (Lineweaver-Burk, Michaelis-Menten); format: biochemical; conditions: Lineweaver–Burk plots, 1, 2, 4, 10 nM
T1 construct: purchased Sigma-Aldrich C1682
Method: (§1) Kinetic studies were performed according to methods reported previously. The concentrations of the substrate ATC or BTC were prepared as 25, 50, 90, 150, 226, and 452 µM. Different concentrations of compound 19 with 0, 1, 2, 4, 10 nM, were also prepared by stock solution. For measurement, the enzymatic reaction was extended to 20 min (huAChE and huBuChE) before the determination of the absorption. Graph Pad Prism 5 was applied for data processing. Vmax and Km values of the Michaelis–Menten kinetics were determined by nonlinear regression from substrate-velocity curves, while Lineweaver–Burk plots were fitted by using linear regression method.

[2] = biological target: T2, BuChE (EC 3.1.1.8) from horse serum (Equus caballus, UniProt P81908); experiment: biochemical; format: biochemical; conditions: BuChE from horse serum; mean ± SEM of three experiments
T2 construct: purchased Sigma-Aldrich C0663; host or cells: equine serum
Method: (§2) AChE (EC 3.1.1.7, Type VI-S, from electric eel, C3389; from human, C1682) and BuChE (EC 3.1.1.8, from equine serum, C0663; from human, B4186), 5,5'-dithiobis (2-nitrobenzoic acid) (DTNB, D218200), acetylthiocholine iodide (ATC, A5751), and butyrylthiocholine iodide (BTC, B3253) were obtained from Sigma-Aldrich (St. Louis, MO).
The inhibitory effects of the synthesised compounds in this paper were evaluated according to our previously reported method. […] ATC/BTC iodide solution (0.075 M) was prepared in deionised water. […] The assay buffer was prepared as follows: potassium dihydrogen phosphate (1.36 g, 10 mmol) was dissolved in 100 ml of water. The pH of the solution was then adjusted to 8.0 ± 0.1 with KOH. Stock solutions of the test samples were dissolved in ethanol to give a final concentration of 10^−4 M when diluted to the final volume of 3.32 ml. For each compound, a dilution series of at least five different concentrations (normally 10^−5–10^−9 M) were prepared.
For measurement, a cuvette containing 3.0 ml of phosphate buffer, 100 µL of AChE or BuChE, 100 µL of DTNB, and 100 µL of the test compound solution were added in sequence. The reaction was initiated after adding 20 µL of ATC or BTC, and the solution was mixed immediately. […] For the reference value, 100 µL of water replaced the test compound solution. For the blank control, additionally 100 µL of water replaced the enzyme solution. The measurement for each concentration was assayed in triplicate. GraphPad Prism 5 was used for data processing. The inhibition curve was fitted by plotting percentage enzyme activity (100% for the reference) versus logarithm of test compound concentration. The IC50 values were calculated according to the curve, and the data were shown in mean ± SEM.
The inhibitory effects on ChEs of all the target compounds were determined according to Ellman’s method. AChE from electrophorus electricus (eeAChE) and BuChE from equine serum (eqBuChE) were used in the assays.

[3] = biological target: T3, AChE (EC 3.1.1.7) from human (Homo sapiens, UniProt P22303); experiment: Human AChE inhibition, Ellman's method; format: biochemical
T3 construct: purchased Sigma-Aldrich C1682
Method: as §2
The inhibitory effects of the synthesised compounds in this paper were evaluated according to our previously reported method. Briefly, AChE/BuChE stock solution was diluted to give 2.5 units/mL (for eeAChE, eqBuChE, and huAChE) or 0.5 units/mL for huBuChE. ATC/BTC iodide solution (0.075 M) was prepared in deionised water. DTNB solution (0.01 M) was prepared using water containing 0.15% (w/v) sodium bicarbonate. The assay buffer was prepared as follows: potassium dihydrogen phosphate (1.36 g, 10 mmol) was dissolved in 100 ml of water. The pH of the solution was then adjusted to 8.0 ± 0.1 with KOH. Stock solutions of the test samples were dissolved in ethanol to give a final concentration of 10^−4 M when diluted to the final volume of 3.32 ml. For each compound, a dilution series of at least five different concentrations (normally 10^−5–10^−9 M) were prepared.
For measurement, a cuvette containing 3.0 ml of phosphate buffer, 100 µL of AChE or BuChE, 100 µL of DTNB, and 100 µL of the test compound solution were added in sequence. The reaction was initiated after adding 20 µL of ATC or BTC, and the solution was mixed immediately. Two minutes (eeAChE and eqBuChE) or 15 min (huAChE and huBuChE) after ATC or BTC addition, the absorption was measured at 25 °C (eeAChE and eqBuChE) or 37 °C (huAChE and huBuChE) at 412 nm, using a Shimadzu 160 spectrophotometer. For the reference value, 100 µL of water replaced the test compound solution. For the blank control, additionally 100 µL of water replaced the enzyme solution. The measurement for each concentration was assayed in triplicate. GraphPad Prism 5 was used for data processing. The inhibition curve was fitted by plotting percentage enzyme activity (100% for the reference) versus logarithm of test compound concentration. The IC50 values were calculated according to the curve, and the data were shown in mean ± SEM.

[4] = biological target: T4, huBuChE (Homo sapiens, UniProt P06276); experiment: Kinetic study of huBuChE inhibition (Lineweaver-Burk, Michaelis-Menten); format: biochemical; conditions: Lineweaver–Burk plots, 1, 2, 4, 10 nM
T4 construct: purchased Sigma-Aldrich B4186
Method: as §1

[5] = biological target: T5, Aβ1–42 (Homo sapiens, UniProt P05067); experiment: Inhibition of self-induced Aβ1–42 aggregation (Thioflavin T assay); format: biochemical; conditions: compound 25 μM, 24 h, read-out: Inhibitory rate on self-induced Aβ1-42 aggregation
T5 construct: aliquots of 2.0 µL of Aβ1–42 (AS-64129–05 Anaspec Inc.); purchased Anaspec Inc. AS-64129–05
Method: Inhibitory effects of the compounds on self-induced Aβ1–42 aggregation were evaluated using a Thioflavin T (ThT)-(T3516, Sigma-Aldrich, St. Louis, MO) binding assay according to the previously reported method. […] The Aβ1–42 and the test sample solutions were incubated for 24 h at the room temperature.
The inhibitory rate of Aβ1–42 self-induced aggregation was calculated according to the following equation: (1-IFi/IFc) × 100%. IFi and IFc were the fluorescence intensities in the presence and absence of inhibitors, respectively, after subtracting the background fluorescence of the 5 mM Thioflavin T solution. Each measurement was repeated in triplicate. The inhibitory rate of the test compound was shown in mean ± SD.

[6] = system: ICR mice; experiment: Morris water maze test, scopolamine-induced cognitive impairment

T3 sequence (P22303 32-614): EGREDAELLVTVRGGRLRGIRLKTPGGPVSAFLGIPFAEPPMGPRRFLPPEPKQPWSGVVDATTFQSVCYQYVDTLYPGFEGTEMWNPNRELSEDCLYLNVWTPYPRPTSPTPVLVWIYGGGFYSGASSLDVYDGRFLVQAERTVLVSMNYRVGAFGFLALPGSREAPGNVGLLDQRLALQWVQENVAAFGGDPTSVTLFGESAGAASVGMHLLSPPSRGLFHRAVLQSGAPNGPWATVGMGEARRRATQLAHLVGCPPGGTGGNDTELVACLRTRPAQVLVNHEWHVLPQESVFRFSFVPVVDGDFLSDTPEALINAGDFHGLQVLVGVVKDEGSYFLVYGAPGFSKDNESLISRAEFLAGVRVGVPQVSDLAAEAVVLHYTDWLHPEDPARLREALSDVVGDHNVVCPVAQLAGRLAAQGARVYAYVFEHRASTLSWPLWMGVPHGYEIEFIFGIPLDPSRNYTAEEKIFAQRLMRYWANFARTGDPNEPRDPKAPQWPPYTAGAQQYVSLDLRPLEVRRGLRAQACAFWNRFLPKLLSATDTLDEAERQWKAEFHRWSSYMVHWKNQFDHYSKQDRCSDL
T2 sequence (P81908 whole entry): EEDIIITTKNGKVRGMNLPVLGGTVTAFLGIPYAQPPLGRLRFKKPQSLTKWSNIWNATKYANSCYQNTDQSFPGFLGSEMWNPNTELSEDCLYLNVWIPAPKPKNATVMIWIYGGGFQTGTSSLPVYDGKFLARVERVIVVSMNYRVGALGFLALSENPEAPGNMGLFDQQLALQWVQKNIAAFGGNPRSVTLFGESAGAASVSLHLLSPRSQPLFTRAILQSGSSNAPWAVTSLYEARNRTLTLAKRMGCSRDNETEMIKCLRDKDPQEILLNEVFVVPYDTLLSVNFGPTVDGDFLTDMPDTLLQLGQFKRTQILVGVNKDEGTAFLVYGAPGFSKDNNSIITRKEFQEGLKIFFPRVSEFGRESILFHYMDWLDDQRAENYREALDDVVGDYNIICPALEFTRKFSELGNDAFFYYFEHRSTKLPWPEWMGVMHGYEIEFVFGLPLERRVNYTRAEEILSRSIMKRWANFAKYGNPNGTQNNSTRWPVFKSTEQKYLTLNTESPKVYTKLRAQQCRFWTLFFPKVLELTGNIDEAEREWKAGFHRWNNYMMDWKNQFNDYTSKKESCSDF
T1 sequence (P22303 32-614): as the sequence (P22303 32-614) above
T5 sequence (P05067 672-713): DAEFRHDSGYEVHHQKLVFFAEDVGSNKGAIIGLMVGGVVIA
T4 sequence (P06276 29-602): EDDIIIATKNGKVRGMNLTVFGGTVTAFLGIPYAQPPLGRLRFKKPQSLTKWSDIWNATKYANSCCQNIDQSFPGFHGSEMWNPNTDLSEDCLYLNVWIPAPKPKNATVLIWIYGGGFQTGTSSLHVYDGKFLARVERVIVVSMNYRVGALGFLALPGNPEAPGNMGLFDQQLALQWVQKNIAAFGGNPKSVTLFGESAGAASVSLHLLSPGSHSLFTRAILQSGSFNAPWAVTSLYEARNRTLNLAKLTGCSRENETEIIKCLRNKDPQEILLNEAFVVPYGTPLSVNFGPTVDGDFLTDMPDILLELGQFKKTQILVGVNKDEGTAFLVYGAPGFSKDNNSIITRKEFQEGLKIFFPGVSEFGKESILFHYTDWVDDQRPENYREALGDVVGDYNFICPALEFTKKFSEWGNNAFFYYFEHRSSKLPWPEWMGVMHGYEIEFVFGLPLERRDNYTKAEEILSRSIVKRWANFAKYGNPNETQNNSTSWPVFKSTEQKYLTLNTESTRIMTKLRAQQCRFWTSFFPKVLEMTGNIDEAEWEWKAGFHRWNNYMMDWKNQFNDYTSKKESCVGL

For O=C(/C=C/c1ccc([N+](=O)[O-])cc1)NCCCCCCNc1c2c(nc3ccccc13)CCCC2 [Compound 19, (E)-3-(4-nitrophenyl)-N-(6-((1,2,3,4-tetrahydroacridin-9-yl)amino)hexyl)acrylamide], the “type of inhibition on huAChE” value [1] was “noncompetitive”, the IC50 [2] was 6.5 ± 0.6 nM and the IC50 ([3]; huAChE, mean ± SEM) was 10.2 nM. For the same compound, the “Selectivity index (SI) = BuChE IC50/AChE IC50, human enzymes” value ([3]; huBuChE IC50 / huAChE IC50) was 0.6, the “type of inhibition on huBuChE” value [4] was “mixed-type inhibition” and the inhibition at 25 µM [5] was 31.8%. For the same compound, the “Latency to target (second), Day 5” value ([6]; learning and training, Day 5, oral, plus scopolamine, ICR mice) was 54.1 ± 8.9 s, the “Latency to target (second), Day 6” value ([6]; learning and training, Day 6, oral, plus scopolamine, ICR mice) was 36.5 ± 4.2 s and the “Latency to target (second), Day 7” value ([6]; learning and training, Day 7, oral, plus scopolamine, ICR mice) was 36.6 ± 4.3 s. For the same compound, the “Latency to target (second), Day 8” value ([6]; learning and training, Day 8, oral, plus scopolamine, ICR mice) was 35.2 ± 4.7 s, the “Latency to target (second), Day 9” value ([6]; learning and training, Day 9, oral, plus scopolamine, ICR mice) was 26.1 ± 1.4 s and the “Latency to Target” value ([6]; probe trial, oral administration plus scopolamine (1 mg/kg ip), ICR mice, mean ± SEM, n = 6) was 25.0 ± 1.5 s. The “trajectory in the Morris water maze test” value ([6]; scopolamine-impaired ICR mice, compared to tacrine group) was “much shortened distances as compared to tacrine group”.
